In PMC6474902, “Examination of novel 4-aminoquinoline derivatives designed and synthesized by a hybrid pharmacophore approach to enhance their anticancer activities” (Scientific Reports, 2019):
Entries after “also recorded” stand apart in the source; their conditions may differ. Like-named read-outs stand apart in the source and are kept apart here.

Tests used:
HeLa = experiment: Combination with bortezomib, cell death; assay type: cell-based, human; settings: 48 h post-treatment; BTZ 6 nM, compound 13 0.75 µM, alone or combined
MCF7 = experiment: SRB antiproliferative/antigrowth assay; assay type: cell-based, human; settings: for GI50: SRB, 48 h post-treatment, mean of triplicates of at least two experiments, read-out: GI50 MCF7
Method: (§1) The antigrowth effects of 4-piperazinylquinoline sulfonyl analogs on human breast tumor cells was initially evaluated using MDA-MB468 (a PTEN defective, EGFR positive breast adenocarcioma), MDA-MB231 (p53 and pRB mutated, triple-negative breast carcinoma), and MCF7 (p53+/−, invasive ductal breast carcinoma) cell lines. In addition, the cytotoxicity of all the compounds was also evaluated with the 184B5 and MCF10A non-cancer immortalized breast epithelial cell lines, to determine if these newly synthesized compounds have differential cytotoxic effects on cancer and non-cancer cells. The panel of three breast cancer cell lines with different genetic back ground and the well-studied two non-cancer immortalized breast cell lines would provide insights into the efficacy and toxicity of the test compounds in the different genetic background and at different stages of tumor development. The dose response of each cell line was established by determining the number of viable cells after 48 h of continuous drug treatment against seven different concentrations (100 µM to 0.0064 µM) of each compound. The reading of sulphorodamine B (SRB) staining is known to accurately reflect the level of total cellular macromolecules/cell growth/proliferation[6],[23]. […] The data for CQ and cisplatin were included as references. […] The differences in the GI50 values may be attributable to such factors as the nature of the sulfonyl group and the halogen substitution on the 7th position of the 4-piperazinylquinoline ring system, and the genetic and biochemical background of the cell lines.
(§2) Antiproliferative/antigrowth effects were determined by a SRB-based protocol[6],[23]. For a typical screening experiment, 5,000–10,000 cells were inoculated into 100 µL medium per well of a 96-well microtiter plate as described previously. Briefly, after the inoculation, the microtiter plate was incubated at 37 °C, 5% CO2, 95% air and 100% relative humidity for 24 h, prior to addition of experimental drugs. Some of the sample wells were fixed with 25 µL of 50% tricholoroacetic acid (TCA) as a control of the cell population for each cell line at the time of drug addition (Tz). An aliquot of the frozen stock was thawed and diluted to a desired final maximum test-concentration with complete medium. Two to ten-fold serial dilutions were made to provide a total of seven drug concentrations (and a control [C]). Following addition of drugs, the culture plate was incubated for additional 48 h. Cells were fixed in situ by slowly adding 25 µL of ice-cold 50% (w/v) TCA (final concentration, 10% TCA), and were then incubated for 60 min at 4 °C. The supernatant was discarded, and the plate was washed five times with tap water, followed by air-dry. 50 µL of SRB solution at 0.4% (w/v) in 1% acetic acid was added to each well, and the plate was incubated for >30 min at room temperature. Unbound SRB was removed by five washes with tap water, followed by air-drying. The cells “stained” with SRB were solubilized with 10 mM trizma base, and the absorbance was read on an automated plate reader at a wavelength of 515–564 nm. The relative growth rate (%) was calculated for each of the compound concentrations according to the following formula: (Ti−Tz)/(C−Tz)×100
(§3) In the formula, time zero (Tz), control growth (C), and OD for different concentration of tested compounds (Ti). The GI50 for each compound was obtained from a non-linear Sigmoidal dose-response (variable slope) curve which is fitted by GraphPad Prism v.4.03 software. Values were calculated for each of these parameters if the level of activity was reached. However, if the effect was not reached or was exceeded, the value for that parameter was expressed as greater or less than the maximum or minimum concentration tested.

MDA-MB468 = experiment: SRB antiproliferative/antigrowth assay; assay type: cell-based, human; settings: Homo sapiens, SRB, 48 h post-treatment, mean of triplicates of at least two experiments, read-out: GI50 MB468
Method: as §1, §2, §3

MDA-MB231 = experiment: SRB antiproliferative/antigrowth assay; assay type: cell-based, human; settings: for GI50: Homo sapiens, SRB, 48 h post-treatment, mean of triplicates of at least two experiments, read-out: GI50 MB231
Method: as §1, §2, §3

[1] = system: MDA-MB231, MDA-MB468, MCF7 breast cancer cells; 184B5 and MCF10A non-cancer breast cells; experiment: SRB assay, panel of breast cancer and non-cancer breast cell lines; assay type: cell-based, human; settings: judged from GI50 values of Table 1
Method: as §1, §2, §3

184B5 = experiment: SRB antiproliferative/antigrowth assay, non-cancer cells; assay type: cell-based, human; settings: Homo sapiens, 184B5, 48 h, read-out: GI50 184B5
Method: as §1, §2, §3

MCF10A = experiment: as above; assay type: cell-based, human; settings: Homo sapiens, MCF-10A, SRB, 48 h post-treatment, non-cancer breast epithelial cells, read-out: GI50 MCF10A
Method: as §1, §2, §3

[2] = SRB, 48 h post-treatment, non-cancer breast epithelial cells

Structure (SMILES) | cell death (HeLa) | melting point [°C] | GI50 (MCF7; Homo sapiens, MCF7, 48 h) [µM] | GI50 (MDA-MB468; MDA-MB-468, 48 h) [µM] | GI50 (MDA-MB231; MDA-MB-231, 48 h) [µM] | preferential antigrowth effect on cancer versus non-cancer cells (in words) [1] | GI50 (184B5; [2]) [µM] | GI50 (MCF10A; 48 h) [µM] | GI50 (MCF7; Homo sapiens, MCF7) [µM] | GI50 (MDA-MB468; MDA-MB-468) [µM] | GI50 (MDA-MB231; MDA-MB-231) [µM] | GI50 (184B5) [µM] | GI50 (MCF10A) [µM] | GI50 (MCF7) [µM] | increase in potency against MCF7 compared to CQ (MCF7; ratio of GI50 values) [fold] | increase in antigrowth activity against MDA-MB231 compared to mono nitro substituted compounds (30 and 39) (MDA-MB231)
CC(C)C[C@H](NC(=O)[C@H](Cc1ccccc1)NC(=O)c1cnccn1)B(O)O [Bortezomib, bortezomib, reference compound] | neither 6 nM BTZ nor 0.75 µM of compound 13 resulted in substantial HeLa cell death | – | – | – | – | – | – | – | – | – | – | – | – | – | – | –
Cc1ccc(S(=O)(=O)N2CCN(c3ccnc4cc(Cl)ccc34)CC2)cc1 [Compound 8, 7-Chloro-4-(4-tosylpiperazin-1-yl)quinoline] | – | 190 to 192 | 16.1 ± 0.6 | 28.8 ± 0.7 | 34.1 ± 0.7 | effective and preferential antigrowth effects on cancer cells; also recorded: stronger antigrowth/antiproliferation activity against cancer cells than non-cancer cells | 47.5 ± 0.9 | 44.4 ± 0.7 | – | – | – | – | – | – | – | –
CN(C)c1cccc2c(S(=O)(=O)N3CCN(c4ccnc5cc(Cl)ccc45)CC3)cccc12 [Compound 14, 5-(4-(7-Chloroquinolin-4-yl)piperazin-1-ylsulfonyl)-N,N-dimethylnaphthalen-1-amine] | – | 145 to 147 | 22.3 ± 0.2 | 27.5 ± 0.7 | 35 ± 0.8 | effective and preferential antigrowth effects on cancer cells; also recorded: stronger antigrowth/antiproliferation activity against cancer cells than non-cancer cells | 28.3 ± 0.3 | 32.2 ± 0.3 | – | – | – | – | – | – | – | –
CS(=O)(=O)N1CCN(c2ccnc3cc(C(F)(F)F)ccc23)CC1 [Compound 16, 4-(4-Methanesulfonyl-piperazin-1-yl)-7-trifluoromethyl-quinoline] | – | 116 to 118 | 25.6 ± 0.3 | 28.6 ± 0.7 | 44.4 ± 0.9 | effective and preferential antigrowth effects on cancer cells; also recorded: stronger antigrowth/antiproliferation activity against cancer cells than non-cancer cells | 93.9 ± 0.9 | 75.8 ± 0.8 | – | – | – | – | – | – | – | –
O=[N+]([O-])c1cccc(S(=O)(=O)N2CCN(c3ccnc4cc(C(F)(F)F)ccc34)CC2)c1 [Compound 21, 4-[4-(3-Nitro-benzenesulfonyl)-piperazin-1-yl]-7-trifluoromethyl-quinoline] | – | 199 to 201 | 9.4 ± 0.3 | 18.6 ± 0.6 | 32.2 ± 0.6 | effective and preferential antigrowth effects on cancer cells; also recorded: stronger antigrowth/antiproliferation activity against cancer cells than non-cancer cells | 17.7 ± 0.2 | 15.4 ± 0.1 | – | – | – | – | – | – | – | –
O=[N+]([O-])c1ccc(S(=O)(=O)N2CCN(c3ccnc4cc(C(F)(F)F)ccc34)CC2)c([N+](=O)[O-])c1 [Compound 22, 4-[4-(2,4-Dinitro-benzenesulfonyl)-piperazin-1-yl]-7-trifluoromethyl-quinoline] | – | 178 to 180 | – | – | – | effective and preferential antigrowth effects on cancer cells; also recorded: stronger antigrowth/antiproliferation activity against cancer cells than non-cancer cells | – | – | 10.8 ± 0.1 | 19.2 ± 0.6 | 24.3 ± 0.6 | 37.8 ± 0.4 | 35.4 ± 0.5 | – | – | –
CN(C)c1cccc2c(S(=O)(=O)NCCCNc3ccnc4cc(Cl)ccc34)cccc12 [Compound 32, 5-Dimethylamino-naphthalene-1-sulfonic acid [3-(7-chloro-quinolin-4-ylamino)-propyl]-amide] | – | 190 to 192 | 2.45 | 4.6 ± 0.4 | 12.7 ± 1 | loss of preferential antigrowth effects on cancer cells | 1.7 ± 0.1 | 2.6 ± 0.1 | – | – | – | – | – | 2.5 ± 0.1 | 15.7 | –
Cc1ccc(S(=O)(=O)NCCCNc2ccnc3cc(C(F)(F)F)ccc23)cc1 [Compound 35, 4-Methyl-N-[3-(7-trifluoromethyl-quinolin-4-ylamino)-propyl]-benzenesulfonamide] | – | 77 to 79 | 6.9 ± 0.5 | 6.2 ± 0.4 | 6.4 ± 0.5 | effective and preferential antigrowth effects on cancer cells; also recorded: stronger antigrowth/antiproliferation activity against cancer cells than non-cancer cells | 12.2 ± 0.9 | 10.9 ± 0.9 | – | – | – | – | – | – | – | –
O=[N+]([O-])c1ccc(S(=O)(=O)NCCCNc2ccnc3cc(C(F)(F)F)ccc23)c([N+](=O)[O-])c1 [Compound 40, 2,4-Dinitro-N-[3-(7-trifluoromethyl-quinolin-4-ylamino)-propyl]-benzenesulfonamide] | – | 198 to 200 | – | – | – | effective and preferential antigrowth effects on cancer cells; also recorded: stronger antigrowth/antiproliferation activity against cancer cells than non-cancer cells | – | – | 5.6 ± 0.3 | 8.5 ± 0.4 | 8.9 ± 0.8 | 15.9 ± 0.9 | 22.3 ± 0.8 | – | – | 1.7–2.3 fold
COC(=O)c1sccc1S(=O)(=O)NCCCNc1ccnc2cc(C(F)(F)F)ccc12 [Compound 42, 3-[3-(7-Trifluoromethyl-quinolin-4-ylamino)-propylsulfamoyl]-thiophene-2-carboxylic acid methyl ester] | – | 137 to 139 | 4.3 ± 0.2 | 4.6 ± 0.2 | 7.5 ± 0.6 | effective and preferential antigrowth effects on cancer cells; also recorded: stronger antigrowth/antiproliferation activity against cancer cells than non-cancer cells | 12.1 ± 0.5 | 14.4 ± 0.8 | – | – | – | – | – | – | – | –
